According to patent US11135310B2, “Gold porphyrin-PEG conjugates and methods of use” (The University of Hong Kong, priority 2015, dated 2021):

Key:
A2780cis = assay: In vitro cytotoxicity, MTT assay; assay type: cell-based, human
NCM460 = assay: In vitro cytotoxicity, MTT assay; assay type: cell-based, human; conditions: 72 h incubation
HCT116 = assay: In vitro cytotoxicity, MTT assay; assay type: cell-based, human
CCD-19Lu = assay: In vitro cytotoxicity, MTT assay; assay type: cell-based; conditions: 72 h incubation
A2780adr cells = assay: Cellular uptake by ICP-MS; assay type: cell-based, human; conditions: 2 μM, 37° C.
Excerpt: Based on the results of previous study on cellular uptake of nanostructures [Davis, M. E. et al. Nat. Rev. Drug Discov. 2008, 7, 771] and the strong dependence of the uptake mechanism of 1 on temperature, K^+ concentration and hypertonic condition (FIG. 3d), nanostructures of 1 likely entered live cells by clathrin-mediated endocytosis.
To rationalize the lower toxicity of NC1 toward MIHA cells, cellular uptake of NC1 by MIHA and cancer cells has been investigated by ICP-MS (FIGS. 3b and 4). The gold contents in A2780 and A2780adr cells were 2.6- and 2.0-fold higher than that in MIHA cells, respectively, after incubation with NC1 for 2 h. […] On the other hand, co-incubation of MIHA cells with 1 and DOX should not lead to significant changes in cellular uptake rate of DOX. […] For NC1, it was less toxic toward MIHA cells as reflected by the apparent “strong antagonism” (Table 3), which should be owing to the decrease of DOX cellular uptake by the encapsulation from the nanostructures of 1, rather than real antagonism from DOX and 1.

HCT116 cells [1] = assay: Apoptosis in co-culture cell model of HCT116 and NCM460; assay type: cell-based, human; conditions: 2 μM, 24 h, Caspase-3/7 Green Reagent, flow cytometry
Description: (§1) In order to differentiate the two different cell lines, NCM460 cells were pre-treated by blue-emissive CMF2HC dye prior to its co-culture with HCT116 cells. […] On the other hand, the co-culture model treated with 1 for 24 h was stained by FITC-Annexin V and propidium iodide, and imaged by fluorescence microscopy. Green and red fluorescence were primarily observed in cells without showing blue luminescence, i.e. HCT16 cells. […] The results of both fluorescence microscopy and flow cytometry support the high selectivity of 1 on killing colon cancer cells in the co-culture model of cancer and normal cells.
(§2) This co-culture model treated with 1 for 24 h had 25.04 and 5.01% of HCT116 and NCM460 cells, respectively, undergoing apoptosis as determined by Caspase-3/7 Green Reagent staining and flow cytometric analysis. This confirms the preferential induction of apoptosis by 1 of HCT116 cells over NCM460 cells in the co-culture model, regardless of the effect, if any, of the blue emissive CMF2HC dye.

NCM460 cells [2] = assay: as above; assay type: cell-based, human; conditions: NCM460 in co-culture, 2 μM, 24 h, Caspase-3/7 Green Reagent, flow cytometry
Description: as §1, §2

MIHA = assay: In vitro cytotoxicity, MTT assay; conditions: MIHA; MTT assay, 72 h incubation
A2780 = assay: In vitro cytotoxicity, MTT assay; assay type: cell-based, human
HCT116 cells [3] = assay: Apoptosis by FITC-Annexin V staining, flow cytometry; assay type: cell-based, human; conditions: HCT116, 2 μM, 24 h
Excerpt: (§3) The selective induction of apoptosis of HCT116 cells over NCM460 cells by 1 was further studied using FITC-Annexin V staining. Phosphatidylserine residues, which are located on the cytoplasmic surface of the cell membrane in normal live cells, will be translocated to outer plasma membrane in apoptotic cells. […] The quantity of apoptotic cells stained by FITC-Annexin V after treatment with 1 and Au1a was investigated by flow cytometry.

NCM460 cells [4] = assay: as above; assay type: cell-based, human; conditions: NCM460, 2 μM, 24 h
Excerpt: as §3

HCT116 cells [5] = assay: Induction of apoptosis, CellEvent Caspase-3/7 Green (microscopy and flow cytometry); assay type: cell-based, human; conditions: HCT116, 2 μM, fluorescence microscopy
NCI-H460 = assay: In vitro cytotoxicity, MTT assay; assay type: cell-based, human
non-tumorigenic cells = assay: In vitro cytotoxicity, MTT assay, non-tumorigenic cells; assay type: cell-based; conditions: 72 h
HeLa = assay: In vitro cytotoxicity, MTT assay; assay type: cell-based, human
Excerpt: Therefore, it was anticipated that a not too high loading of DOX into nanostructures of 1 could be used for anti-cancer purposes in order to maintain low toxicity toward non-tumorigenic cells. Together with the higher encapsulation efficiency of DOX, NC1 was selected for investigations of the in vitro cytotoxicity. […] The in vitro cytotoxicity of NC1 was also compared to that of the mixture of nanostructures of 1 and DOX. […] The observed cytotoxicity was further evaluated by the combination index (CI), which can describe the effect of drug combination. […] It is shown that dose and effect are interchangeable via defined parameters. This general equation for the single drug effect has been extended to the multiple drug effect equation for n drugs. These equations provide the theoretical basis for the combination index (CI)-isobologram equation that allows quantitative determination of drug interactions, where CI<1, =1, and >1 indicate synergism, additive effect, and antagonism, respectively. [Chou, et al. Pharmacol. Rev. 2006, 58, 621] […] The synergistic effect can originate from different molecular targets and/or mechanism of action of DOX from that of gold(III) porphyrin complexes. […] These different modes of action would allow supra-additive effect on killing HeLa cells by the co-delivery.

NCM460 cells [6] = assay: Induction of apoptosis, CellEvent Caspase-3/7 Green (microscopy and flow cytometry); conditions: NCM460, 2 μM, fluorescence microscopy
[7] = acute toxicological study, Chem. Commun. 2011, 47, 9554; cited from earlier work
[8] = IC50 of MIHA cells/IC50 of cancer cells
[9] = IC50 of NCM460 cells/IC50 of cancer cells

With `C1=Cc2nc1c(-c1ccccc1)c1ccc([n-]1)c(-c1ccccc1)c1nc(c(-c3ccccc3)c3ccc([n-]3)c2-c2ccccc2)C=C1.[Au+3].[Cl-]` [Au1a, [Au(TPP)]Cl, reference compound] the “Toxicity toward cancer cells compared to that toward MIHA cells” value (A2780cis; A2780cis, IC50 of MIHA cells/IC50 of cancer cells) was 3.5, the “Toxicity toward cancer cells compared to that toward NCM460 cells” value (A2780cis; A2780cis, IC50 of NCM460 cells/IC50 of cancer cells) was 0.4 and the IC50 (A2780cis; A2780cis, MTT assay, 72 h incubation) was 180 ± 10 nM. For the same molecule, the “Resistance found in A2780cis” value (A2780cis; Determined by IC50 of A2780cis cells/IC50 of A2780 cells) was 0.67, the IC50 (NCM460) was 70 ± 10 nM and the IC50 (HCT116; HCT116, MTT assay, 72 h incubation) was 90 ± 20 nM. The “Toxicity toward cancer cells compared to that toward MIHA cells” value (HCT116; HCT-116, IC50 of MIHA cells/IC50 of cancer cells) was 4.4, the “Toxicity toward cancer cells compared to that toward NCM460 cells” value (HCT116; HCT-116, IC50 of NCM460 cells/IC50 of cancer cells) was 0.8 and the IC50 (CCD-19Lu) was 230 ± 40 nM. The “Incubation time after which amount in A2780adr cells decreases” value (A2780adr cells) was 0.5 h, the “Population percentage of apoptotic cells (corrected)” value (HCT116 cells [1]) was 54.6% and the “Population percentage of apoptotic cells (corrected)” value (NCM460 cells [2]) was 29.3%. The IC50 (MIHA) was 400 ± 70 nM, the “Toxicity toward cancer cells compared to that toward MIHA cells” value (A2780; [8]) was 3.3 and the “Toxicity toward cancer cells compared to that toward NCM460 cells” value (A2780; [9]) was 0.6. For the same molecule, the IC50 (A2780; MTT assay, 72 h incubation) was 120 ± 20 nM, the “Percentage of apoptotic cells” value (HCT116 cells [3]) was 39.6% and the “Percentage of apoptotic cells” value (NCM460 cells [4]) was 39.3%. For the same molecule, the “Incubation time to induction of apoptosis” value (HCT116 cells [5]) was 12 h, the “Incubation time to significant apoptotic events / large population of apoptotic cells” value (HCT116 cells [5]) was 32 h and the “Toxicity toward cancer cells compared to that toward MIHA cells” value (A2780adr; A2780adr, IC50 of MIHA cells/IC50 of cancer cells) was 0.4. For the same molecule, the “Toxicity toward cancer cells compared to that toward NCM460 cells” value (A2780adr; A2780adr, IC50 of NCM460 cells/IC50 of cancer cells) was 0.06, the IC50 (A2780adr; A2780adr, MTT assay, 72 h incubation) was 1100 ± 100 nM and the “Resistance found in A2780adr” value (A2780adr; Determined by IC50 of A2780adr cells/IC50 of A2780 cells) was 0.11. For the same molecule, the “Toxicity toward cancer cells compared to that toward MIHA cells” value (NCI-H460; [8]) was 1.7, the “Toxicity toward cancer cells compared to that toward NCM460 cells” value (NCI-H460; [9]) was 0.3 and the IC50 (NCI-H460; MTT assay, 72 h incubation) was 230 ± 10 nM. The “IC50 for non-tumorigenic cells” value (non-tumorigenic cells) was “submicromolar range”, the “Toxicity toward cancer cells compared to that toward MIHA cells” value (HeLa; IC50 of non-tumorigenic MIHA cells/IC50 of cancer cells) was 0.6 and the “Toxicity toward cancer cells compared to that toward NCM460 cells” value (HeLa; IC50 of non-tumorigenic NCM460 cells/IC50 of cancer cells) was 0.1. For the same molecule, the IC50 (HeLa; MTT assay, 72 h incubation, read-out: IC50) was 660 ± 40 nM, the “Incubation time to induction of apoptosis” value (NCM460 cells [6]) was 20 h and the “Incubation time to large number of apoptotic events” value (NCM460 cells [6]) was 32 h. The “Effective dose to combat tumor growth relative to lethal dose” value [7] was “close to the lethal dose”.
